Active and inactive are the calls of the source.
Assays:
Nonstructural protein 1 = Nonstructural protein 1 (Influenza A virus, UniProt Q194T2); type: functional, Influenza A virus (A/California/07/2009(H1N1))
Bcl-2-like protein 10 = biological target: T1, Bcl-2-like protein 10 (Homo sapiens, UniProt Q9HD36); experiment: Bcl-B/TR3 peptide binding disruption – biochemical, fluorescence polarization, FITC-TR3 peptide, selectivity assay for Bfl-1 inhibitor project, primary screen (AID 748);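 also: fluorescence polarization from a fluorescein-labelled TR3 peptide binding purified Bcl-B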
T1 sequence (Q9HD36 whole entry): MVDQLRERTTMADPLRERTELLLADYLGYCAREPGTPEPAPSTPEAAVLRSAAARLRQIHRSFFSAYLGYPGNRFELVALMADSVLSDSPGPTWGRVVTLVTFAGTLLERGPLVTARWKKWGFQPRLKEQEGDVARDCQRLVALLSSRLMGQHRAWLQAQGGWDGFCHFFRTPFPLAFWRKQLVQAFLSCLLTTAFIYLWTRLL

[1] = biological target: Induced myeloid leukemia cell differentiation protein Mcl-1 (Homo sapiens, UniProt Q07820); type: functional
[2] = Vero E6 cell cytotoxicity, dose response, cytotoxicity control for non-replicating M. tuberculosis project, secondary assay (AID 492998); type: functional, VeroE6; settings: Vero C1008
[3] = fluconazole-exposed Candida albicans growth modulators – fluorescence, retest, confirmation (AID 2467); type: functional, cell-based
[4] = system: Streptococcus sp. 'group A'; experiment: Streptococcus pyogenes SK(-)GAS viability under kanamycin – luminescence, BacTiterGlo, confirmation, counter-screen for streptokinase expression inhibitor project, dose response (AID 1900); type: functional, organism-based
Streptococcus = experiment: GAS UMAA2166 growth inhibition – luminescence, BacTiterGlo, counter-screen for streptokinase expression inhibitor project, dose response (AID 1915); type: functional, organism-based;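 also: potency for reduction of bacterial viability or growth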
cells = type: functional
[5] = NIH-3T3 fibroblast cytotoxicity, dose response, cytotoxicity control, cell-based, fluorescence, Alamar Blue, secondary assay (AID 2327); type: functional;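 also: NIH-3T3 mouse fibroblasts cultured with fluconazole at 8 µg/mL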
[6] = THP-1 cell cytotoxicity, dose response, cytotoxicity control for non-replicating M. tuberculosis project (AID 489025); type: functional
[7] = biological target: Peroxisome proliferator-activated receptor gamma/Nuclear receptor coactivator 2 (Homo sapiens, UniProt P37231); experiment: (§1) TR-FRET dose response biochemical High Throughput Screening assay for agonists of the steroid receptor coactivator 2 (SRC-2) recruitment by the peroxisome proliferator-activated receptor gamma (PPAR gamma): non-selective agonists. [Related pubchem assays: 1297, 1032 ]; type: functional
[8] = Trypanosoma cruzi growth suppression in host cells – NIH3T3 host cells, beta-gal luminescence, confirmation (AID 2044); type: functional, cell-based;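 also: intracellular parasites grown in NIH/3T3 mouse fibroblasts as host cells; luminescent beta-galactosidase reporter signal from transgenic T. cruzi replicating inside host cells; inhibitors lower the luminescence signal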
Beta-galactosidase = Beta-galactosidase (Escherichia coli, UniProt Q8VNN2); experiment: Dose response counterscreen for EBI2 assay utilizing the enzyme, b-galactosidase.; type: functional
[9] = NIH3T3 cell viability loss – ATP luminescence, mouse fibroblasts, counter-screen, dose response (AID 2010); type: functional, cell-based;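 also: cells exposed to compound for about 90 hours before reading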
[10] = biological target: Peroxisome proliferator-activated receptor gamma/Nuclear receptor coactivator 3 (Homo sapiens, UniProt P37231); experiment: as §1, with “3 (SRC-3)” for “2 (SRC-2)”, “1301 (Confirmation screen.), 1048 (Primary screen.)]” for “1297, 1032 ]”; type: functional
[11] = biological target: Peroxisome proliferator-activated receptor gamma/Nuclear receptor coactivator 1 (Homo sapiens, UniProt P37231); experiment: as §1, with “1 (SRC-1)” for “2 (SRC-2)”, “assays (depositor defined):AID1300, AID1808, AID504735, AID631]” for “assays: 1297, 1032 ]”; type: protein assay
Troponin, cardiac muscle = Troponin, cardiac muscle (Homo sapiens, UniProt P19429+P45379+P63316); experiment: Fluorescence-based biochemical high throughput dose response assay for activators of the calcium sensitivity of cardiac Regulated Thin Filaments (RTF). [Related pubchem assays (depositor defined):AID493008, AID493018, AID504382, AID504383]; type: protein-complex assay
Coagulation factor XII = biological target: T2, Coagulation factor XII (Homo sapiens, UniProt P00748); type: functional;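 also: activated factor XIIa alpha cleaving a fluorogenic AMC peptide substrate; inhibitor potency from loss of enzyme activity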
T2 sequence (P00748 whole entry): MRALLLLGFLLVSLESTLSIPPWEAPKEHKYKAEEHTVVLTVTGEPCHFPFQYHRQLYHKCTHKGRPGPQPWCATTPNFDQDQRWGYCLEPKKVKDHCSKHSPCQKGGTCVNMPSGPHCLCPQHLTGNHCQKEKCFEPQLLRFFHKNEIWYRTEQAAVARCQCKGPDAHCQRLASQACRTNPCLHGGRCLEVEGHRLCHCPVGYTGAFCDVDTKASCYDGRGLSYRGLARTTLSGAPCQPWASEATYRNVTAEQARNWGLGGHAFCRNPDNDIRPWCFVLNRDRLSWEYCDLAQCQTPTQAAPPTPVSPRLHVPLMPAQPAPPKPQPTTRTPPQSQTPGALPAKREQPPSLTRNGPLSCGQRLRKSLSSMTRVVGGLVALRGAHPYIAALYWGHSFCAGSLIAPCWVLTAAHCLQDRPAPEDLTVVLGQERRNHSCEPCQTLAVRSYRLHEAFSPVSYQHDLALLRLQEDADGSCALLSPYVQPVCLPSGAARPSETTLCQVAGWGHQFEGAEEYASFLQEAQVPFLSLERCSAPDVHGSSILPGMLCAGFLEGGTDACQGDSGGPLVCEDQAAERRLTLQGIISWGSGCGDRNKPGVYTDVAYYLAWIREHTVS

[12] = biological target: G-protein coupled receptor 35 (Homo sapiens, UniProt Q9HC97); experiment: inhibition of zaprinast-stimulated GPR35 beta-arrestin translocation – imaging, U2OS, beta-arrestin-GFP, zaprinast agonist, primary screen (AID 2058); type: functional;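 also: antagonist potency meaning inhibition of agonist-induced arrestin redistribution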
[13] = biological target: T3, Zinc finger protein mex-5 (Caenorhabditis elegans, UniProt Q9XUB2); experiment: potency of MEX-5 RNA-binding blockers – biochemical, C. elegans, fluorescence polarization, dose response (AID 1960)
T3 sequence (Q9XUB2 whole entry): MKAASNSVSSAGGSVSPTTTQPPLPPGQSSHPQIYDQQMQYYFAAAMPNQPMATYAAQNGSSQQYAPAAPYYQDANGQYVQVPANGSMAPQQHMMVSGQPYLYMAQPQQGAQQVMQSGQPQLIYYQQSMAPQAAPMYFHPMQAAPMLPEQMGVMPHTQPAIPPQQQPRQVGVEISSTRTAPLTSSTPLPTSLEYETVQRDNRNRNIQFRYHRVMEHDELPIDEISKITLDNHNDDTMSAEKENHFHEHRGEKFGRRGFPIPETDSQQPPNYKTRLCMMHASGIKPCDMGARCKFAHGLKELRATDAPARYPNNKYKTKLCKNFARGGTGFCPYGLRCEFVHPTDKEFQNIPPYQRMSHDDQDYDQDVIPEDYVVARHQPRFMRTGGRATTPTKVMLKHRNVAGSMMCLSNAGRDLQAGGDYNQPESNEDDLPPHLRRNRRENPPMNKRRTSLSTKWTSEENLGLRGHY

Beta-lactamase [14] = biological target: Beta-lactamase (Salmonella choleraesuis (strain SC-B67), UniProt Q5J463)
[15] = biological target: T4, RNA-binding protein pos-1 (Caenorhabditis elegans, UniProt G5EF15); experiment: disruptors of C. elegans POS-1 RNA interaction – biochemical, fluorescence polarization, dose response (AID 1964);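 also: purified POS-1 fused to maltose binding protein made in E. coli; potency of compounds blocking POS-1 binding to fluorescent RNA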
T4 sequence (G5EF15 whole entry): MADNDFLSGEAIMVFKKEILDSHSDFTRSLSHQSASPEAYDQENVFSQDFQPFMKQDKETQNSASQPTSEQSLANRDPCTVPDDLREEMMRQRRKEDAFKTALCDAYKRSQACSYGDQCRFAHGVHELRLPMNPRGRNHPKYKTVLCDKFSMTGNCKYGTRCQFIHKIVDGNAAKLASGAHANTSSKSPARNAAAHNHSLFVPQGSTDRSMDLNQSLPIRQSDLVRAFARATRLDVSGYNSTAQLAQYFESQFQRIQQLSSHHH

Beta-lactamase [16] = biological target: Beta-lactamase (Pseudomonas aeruginosa, UniProt Q79MP6);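 also: biochemical dose-response test of metallo-beta-lactamase enzyme inhibition, read out by epi-absorbance; purified recombinant IMP-1 metallo-beta-lactamase with nitrocefin as substrate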
Beta-lactamase (Pseudomonas aeruginosa, UniProt Q79MP6), sequence (Q79MP6 whole entry): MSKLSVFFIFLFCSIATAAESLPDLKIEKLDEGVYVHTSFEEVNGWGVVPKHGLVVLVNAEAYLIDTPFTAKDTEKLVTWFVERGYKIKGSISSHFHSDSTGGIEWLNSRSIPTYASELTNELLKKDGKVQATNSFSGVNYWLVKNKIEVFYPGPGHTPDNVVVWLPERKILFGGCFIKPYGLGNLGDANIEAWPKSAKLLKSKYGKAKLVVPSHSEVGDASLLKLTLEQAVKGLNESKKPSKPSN

Peroxisome proliferator-activated receptor gamma/Nuclear receptor coactivator 3, sequence (P37231 whole entry): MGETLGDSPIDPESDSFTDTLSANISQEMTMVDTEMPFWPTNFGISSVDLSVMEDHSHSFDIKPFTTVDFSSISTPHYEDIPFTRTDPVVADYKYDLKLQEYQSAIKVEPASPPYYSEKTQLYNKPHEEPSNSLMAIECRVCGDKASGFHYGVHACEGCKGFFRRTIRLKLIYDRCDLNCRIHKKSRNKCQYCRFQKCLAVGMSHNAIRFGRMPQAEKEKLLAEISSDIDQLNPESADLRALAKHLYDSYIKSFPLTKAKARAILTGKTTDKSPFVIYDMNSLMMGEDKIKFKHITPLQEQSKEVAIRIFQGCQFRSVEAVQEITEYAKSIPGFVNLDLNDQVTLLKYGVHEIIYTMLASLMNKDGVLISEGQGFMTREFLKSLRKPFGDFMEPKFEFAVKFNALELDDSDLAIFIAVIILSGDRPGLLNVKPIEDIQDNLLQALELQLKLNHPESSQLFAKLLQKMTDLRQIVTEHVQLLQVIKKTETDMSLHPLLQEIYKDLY
Peroxisome proliferator-activated receptor gamma/Nuclear receptor coactivator 3, sequence (Q9Y6Q9 whole entry, further chain): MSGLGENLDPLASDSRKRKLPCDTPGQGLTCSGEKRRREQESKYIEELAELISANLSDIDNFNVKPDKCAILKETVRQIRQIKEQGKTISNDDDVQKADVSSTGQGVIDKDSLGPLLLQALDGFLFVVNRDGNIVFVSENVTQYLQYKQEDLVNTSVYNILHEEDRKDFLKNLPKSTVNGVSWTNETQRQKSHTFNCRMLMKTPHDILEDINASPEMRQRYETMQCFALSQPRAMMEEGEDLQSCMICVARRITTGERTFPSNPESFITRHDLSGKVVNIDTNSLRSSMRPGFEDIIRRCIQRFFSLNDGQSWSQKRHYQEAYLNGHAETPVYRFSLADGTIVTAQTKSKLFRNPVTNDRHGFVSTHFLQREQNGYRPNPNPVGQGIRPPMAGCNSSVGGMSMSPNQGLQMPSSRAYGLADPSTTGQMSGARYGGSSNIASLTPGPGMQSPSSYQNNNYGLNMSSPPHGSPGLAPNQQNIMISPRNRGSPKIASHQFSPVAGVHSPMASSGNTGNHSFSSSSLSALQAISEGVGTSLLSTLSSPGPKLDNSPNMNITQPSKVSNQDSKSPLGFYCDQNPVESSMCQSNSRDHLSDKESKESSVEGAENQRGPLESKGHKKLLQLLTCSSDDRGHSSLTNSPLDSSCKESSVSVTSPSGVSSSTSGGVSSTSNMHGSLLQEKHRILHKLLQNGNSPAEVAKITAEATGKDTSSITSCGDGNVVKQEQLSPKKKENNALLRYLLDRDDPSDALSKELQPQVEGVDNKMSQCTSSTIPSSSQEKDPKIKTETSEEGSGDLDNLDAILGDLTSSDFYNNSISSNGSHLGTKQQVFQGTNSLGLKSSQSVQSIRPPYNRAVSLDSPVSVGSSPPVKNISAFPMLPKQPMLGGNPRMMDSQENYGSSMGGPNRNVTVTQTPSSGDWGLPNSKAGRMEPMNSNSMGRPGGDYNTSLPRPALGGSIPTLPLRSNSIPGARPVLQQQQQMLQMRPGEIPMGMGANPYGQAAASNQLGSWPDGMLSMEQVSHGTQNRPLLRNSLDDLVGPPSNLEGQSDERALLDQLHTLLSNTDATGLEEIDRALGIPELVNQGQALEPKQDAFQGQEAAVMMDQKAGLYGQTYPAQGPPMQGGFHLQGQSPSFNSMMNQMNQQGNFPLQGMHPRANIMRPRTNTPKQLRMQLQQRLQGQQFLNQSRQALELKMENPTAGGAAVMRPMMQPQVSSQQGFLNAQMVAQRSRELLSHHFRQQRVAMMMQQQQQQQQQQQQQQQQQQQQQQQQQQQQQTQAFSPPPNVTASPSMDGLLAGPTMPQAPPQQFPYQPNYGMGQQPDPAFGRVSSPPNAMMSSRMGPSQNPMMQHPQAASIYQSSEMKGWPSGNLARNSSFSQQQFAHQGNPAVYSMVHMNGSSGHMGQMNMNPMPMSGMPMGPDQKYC
Peroxisome proliferator-activated receptor gamma/Nuclear receptor coactivator 1, sequence (P37231 whole entry): as the sequence (P37231 whole entry) above
Peroxisome proliferator-activated receptor gamma/Nuclear receptor coactivator 1, sequence (Q15788 whole entry, further chain): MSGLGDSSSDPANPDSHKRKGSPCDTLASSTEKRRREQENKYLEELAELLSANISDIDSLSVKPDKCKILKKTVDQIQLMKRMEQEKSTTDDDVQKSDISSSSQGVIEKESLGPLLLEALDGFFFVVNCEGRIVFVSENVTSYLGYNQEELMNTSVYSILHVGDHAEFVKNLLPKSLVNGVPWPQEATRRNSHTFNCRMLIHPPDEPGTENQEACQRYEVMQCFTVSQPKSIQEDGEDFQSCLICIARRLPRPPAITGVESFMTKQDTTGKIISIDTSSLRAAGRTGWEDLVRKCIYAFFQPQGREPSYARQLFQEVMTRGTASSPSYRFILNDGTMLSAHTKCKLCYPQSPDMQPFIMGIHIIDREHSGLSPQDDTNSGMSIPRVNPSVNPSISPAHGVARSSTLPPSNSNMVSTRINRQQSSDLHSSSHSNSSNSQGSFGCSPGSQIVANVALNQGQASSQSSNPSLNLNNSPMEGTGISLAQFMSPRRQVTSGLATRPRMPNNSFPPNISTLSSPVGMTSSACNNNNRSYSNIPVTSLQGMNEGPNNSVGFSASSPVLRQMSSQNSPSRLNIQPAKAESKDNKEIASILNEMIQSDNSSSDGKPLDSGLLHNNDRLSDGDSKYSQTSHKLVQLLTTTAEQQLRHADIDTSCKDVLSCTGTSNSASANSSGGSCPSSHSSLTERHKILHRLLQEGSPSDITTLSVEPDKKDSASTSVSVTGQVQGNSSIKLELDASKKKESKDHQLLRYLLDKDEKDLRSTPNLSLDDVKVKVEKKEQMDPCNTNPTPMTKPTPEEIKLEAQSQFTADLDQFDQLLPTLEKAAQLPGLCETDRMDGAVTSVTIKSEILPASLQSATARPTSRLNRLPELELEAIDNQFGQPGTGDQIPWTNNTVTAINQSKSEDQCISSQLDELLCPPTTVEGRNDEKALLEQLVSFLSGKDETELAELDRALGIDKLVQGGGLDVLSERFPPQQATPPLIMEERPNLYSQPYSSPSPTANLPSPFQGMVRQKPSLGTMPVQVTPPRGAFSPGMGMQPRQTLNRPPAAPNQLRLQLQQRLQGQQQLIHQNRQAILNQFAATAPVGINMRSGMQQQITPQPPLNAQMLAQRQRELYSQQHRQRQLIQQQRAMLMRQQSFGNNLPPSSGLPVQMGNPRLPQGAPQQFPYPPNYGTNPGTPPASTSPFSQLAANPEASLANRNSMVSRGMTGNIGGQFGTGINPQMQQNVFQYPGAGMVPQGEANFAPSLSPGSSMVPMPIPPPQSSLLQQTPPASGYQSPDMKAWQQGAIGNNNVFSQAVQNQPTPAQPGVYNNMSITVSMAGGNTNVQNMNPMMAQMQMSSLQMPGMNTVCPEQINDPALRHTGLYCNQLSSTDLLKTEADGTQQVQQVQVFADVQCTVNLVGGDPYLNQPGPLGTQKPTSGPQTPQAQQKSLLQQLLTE
G-protein coupled receptor 35, sequence (Q9HC97 whole entry): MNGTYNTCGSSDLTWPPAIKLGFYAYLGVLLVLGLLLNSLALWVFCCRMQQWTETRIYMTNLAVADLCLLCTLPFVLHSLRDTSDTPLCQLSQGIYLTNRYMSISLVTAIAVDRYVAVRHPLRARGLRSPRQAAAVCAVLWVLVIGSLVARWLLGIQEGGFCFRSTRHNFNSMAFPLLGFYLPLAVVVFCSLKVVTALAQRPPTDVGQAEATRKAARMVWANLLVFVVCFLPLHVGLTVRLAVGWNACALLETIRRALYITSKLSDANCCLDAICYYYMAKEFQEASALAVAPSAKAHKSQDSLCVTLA
Nonstructural protein 1, sequence (Q194T2 whole entry): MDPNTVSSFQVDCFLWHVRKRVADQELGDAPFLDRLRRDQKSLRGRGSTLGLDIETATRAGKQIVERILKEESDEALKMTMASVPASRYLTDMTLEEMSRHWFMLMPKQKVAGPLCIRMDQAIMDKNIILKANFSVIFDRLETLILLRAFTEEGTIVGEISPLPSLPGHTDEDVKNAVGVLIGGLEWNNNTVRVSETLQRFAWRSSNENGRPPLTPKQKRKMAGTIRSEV
Beta-lactamase (Salmonella choleraesuis (strain SC-B67), UniProt Q5J463), sequence (Q5J463 whole entry, the tested form may be a part): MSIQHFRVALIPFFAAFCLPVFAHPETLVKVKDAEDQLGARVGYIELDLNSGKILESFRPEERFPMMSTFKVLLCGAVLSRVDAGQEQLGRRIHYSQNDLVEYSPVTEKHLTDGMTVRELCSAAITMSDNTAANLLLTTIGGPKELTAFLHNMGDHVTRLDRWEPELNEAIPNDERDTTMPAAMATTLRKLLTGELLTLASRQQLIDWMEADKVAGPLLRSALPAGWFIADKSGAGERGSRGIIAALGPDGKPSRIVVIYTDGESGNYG

For `CN(C)c1ccc(NC(=O)CN2C(=O)CN=C(c3ccccc3)c3cc(Cl)ccc32)cc1`, the IC50 (Nonstructural protein 1) was 31 µM (active), the IC50 (Bcl-2-like protein 10) was > 100 µM (inactive) and the IC50 [1] was 0.856 µM (not active).

With `COc1cccc(C(=O)Nc2nnc(-c3ccc(F)cc3)o2)c1` the CC50 [2] was 15.8 µM (active), the EC50 [3] was 1.96 µM (active) and the EC50 [4] was 2.33 µM (active). The EC50 (Streptococcus) was 5.74 µM (active), the IC50 (cells) was 1.03 µM (active) and the EC50 [5] was > 150 µM (inactive). For the same compound, the CC50 [6] was 31.9 µM (active).

For `CN=C(S)N1N=C(c2ccc(Br)cc2)CC1c1ccc(Br)cc1` (stereo not drawn), the EC50 [7] was > 8.82 µM (not active), the EC50 [8] was 1.64 µM (active) and the IC50 (Beta-galactosidase) was > 80 µM (inactive). The EC50 [9] was > 60 µM (not active), the EC50 [10] was > 26.5 µM (not active) and the EC50 [11] was > 2.94 µM (active).

For `CN(C)NC(=O)c1ccc([N+](=O)[O-])s1`, the EC50 (Troponin, cardiac muscle) was > 71.4 µM (inactive).

For `Cc1cc(C)n2nc(SCC(=O)Nc3ccc(F)cc3)nc2n1`, the IC50 (Coagulation factor XII) was > 50 µM (inactive).

In the case of `CN1C(=O)/C(=C\c2ccc(N(C)C)cc2)OC1=S`, the IC50 [12] is reported as 1.12 µM (active), the EC50 [13] is reported as > 300 µM (inconclusive) and the IC50 (Beta-lactamase [14]) is reported as > 59.6 µM (inactive). The EC50 [15] was > 300 µM (not active) and the IC50 (Beta-lactamase [16]) was > 59.6 µM (inactive).

Source: ChEMBL document CHEMBL1201862, “PubChem BioAssay data set” (2004)
